Data as given in article PMC4965013, “Open Source Drug Discovery with the Malaria Box Compound Collection for Neglected Diseases and Beyond” (PLoS Pathogens, 2016).

Tests used:
[1] = system: P. falciparum 3D7 trophozoites; experiment: Metabolomic fingerprint profiling LC-MS; type: cell-based, Plasmodium falciparum; set-up: UDP-D-glucose / ADP-D-glucose: unit not given here; details: for Acetyllysine / N-acetyl-L-ornithine / N-carbamoyl-L-aspartate / NADPH / dAMP / dCMP / dTDP / dTMP / dTTP / dihydroorotate / orotate / DLH / DLS/SDL/SID / PD / PEE / PVNF / 3-phosphoglycerate / ADP-D-glucose / ATP / CDP / D-sedoheptulose-1/7-phosphate / FAD / GMP / NAD+ / NADP+ / Octoluse Bisphosphate / Pyroglutamic acid / UDP-D-glucose / UDP-D-glucuronate / UDP-N-acetyl-glucosamine / UDP / UMP / UTP / a-ketoglutarate / citrate/isocitrate / cytidine / dATP / dGMP/AMP / fumarate / glucose-1/6-phosphate / glycerate / guanine / guanosine / hypoxanthine / indole / inosine / nicotinate / ornithine / phosphoenolpyruvate / pyruvate / ribose-phosphate / sarcosine/alanine / sn-glycerol-3-phosphate / succinate/methylmalonic acid / uridine / xanthosine: S2 Table Metabolomics; for Acetyllysine: metabolite Acetyllysine; for N-acetyl-L-ornithine: metabolite N-acetyl-L-ornithine; for N-carbamoyl-L-aspartate: metabolite N-carbamoyl-L-aspartate; for NADPH: metabolite NADPH; for dAMP: metabolite dAMP; for dCMP: metabolite dCMP; for dTDP: metabolite dTDP; for dTMP: metabolite dTMP; for dTTP: metabolite dTTP; for dihydroorotate: metabolite dihydroorotate; for orotate: metabolite orotate; for DLH: peptide DLH; for DLS/SDL/SID: peptide DLS/SDL/SID; for PD: peptide PD; for PEE: peptide PEE; for PVNF: peptide PVNF; for 3-phosphoglycerate: metabolite 3-phosphoglycerate; for ADP-D-glucose: metabolite ADP-D-glucose; for ATP: metabolite ATP; for CDP: metabolite CDP; for CDP / D-sedoheptulose-1/7-phosphate / GMP / Octoluse Bisphosphate / UDP / UMP / UTP / citrate/isocitrate / dGMP/AMP / fumarate / glucose-1/6-phosphate / glycerate / guanine / guanosine / inosine / pyruvate / sarcosine/alanine / succinate/methylmalonic acid / uridine / xanthosine: change in metabolite level after compound treatment; for D-sedoheptulose-1/7-phosphate: metabolite D-sedoheptulose-1/7-phosphate; for FAD: metabolite FAD; for GMP: metabolite GMP; for NAD+: metabolite NAD+; for NADP+: metabolite NADP+; for Octoluse Bisphosphate: metabolite Octoluse Bisphosphate; for Pyroglutamic acid: metabolite Pyroglutamic acid; for UDP-D-glucose: metabolite UDP-D-glucose; for UDP-D-glucuronate: metabolite UDP-D-glucuronate; for UDP-N-acetyl-glucosamine: metabolite UDP-N-acetyl-glucosamine; for UDP: metabolite UDP; for UMP: metabolite UMP; for UTP: metabolite UTP; for a-ketoglutarate: metabolite a-ketoglutarate; for citrate/isocitrate: metabolite citrate/isocitrate; for cytidine: metabolite cytidine; for dATP: metabolite dATP; for dGMP/AMP: metabolite dGMP/AMP; for fumarate: metabolite fumarate; for glucose-1/6-phosphate: metabolite glucose-1/6-phosphate; for glycerate: metabolite glycerate; for guanine: metabolite guanine; for guanosine: metabolite guanosine; for hypoxanthine: metabolite hypoxanthine; for indole: metabolite indole; for inosine: metabolite inosine; for 2_3-Diphosphoglyceric acid / 4-phosphopantothenate / 6-phospho-D-gluconate / FMN / IMP / Pyrophosphate / Sedoheptoluse bisphosphate / cyclic-AMP / glutathione disulfide / lactate / myo-inositol: metabolite level change after treatment; for nicotinate: metabolite nicotinate; for ornithine: metabolite ornithine; for phosphoenolpyruvate: metabolite phosphoenolpyruvate; for pyruvate: metabolite pyruvate; for ribose-phosphate: metabolite ribose-phosphate; for sarcosine/alanine: metabolite sarcosine/alanine; for sn-glycerol-3-phosphate: metabolite sn-glycerol-3-phosphate; for succinate/methylmalonic acid: metabolite succinate/methylmalonic acid; for uridine: metabolite uridine; for xanthosine: metabolite xanthosine
P. falciparum = experiment: EC50 listed in S2 Table Metabolomics (used to set the concentration tested); type: cell-based; details: Plasmodium falciparum; EC50 used for Factor_XEC50 in metabolomics; read-out: EC50_nM

`CC(C)(C)c1ccc(O)c(CNC2CCCCC2)c1` [MMV665785] showed an Acetyllysine [1] of -3.15, a N-acetyl-L-ornithine [1] of -2.311 and a N-carbamoyl-L-aspartate [1] of -1.546. For the same compound, the NADPH [1] was 0.984, the dAMP [1] was -0.2403 and the dCMP [1] was -0.2349. It also gave a dTDP [1] of -0.5512, a dTMP [1] of -0.26 and a dTTP [1] of 0.1164. The dihydroorotate [1] was -0.9762, the orotate [1] was -1.456 and the DLH [1] was -3.579. The DLS/SDL/SID [1] was -3.002, the PD [1] was -3.491 and the PEE [1] was -3.582. For the same compound, the PVNF [1] was -4.043, the 3-phosphoglycerate [1] was 0.5402 and the ADP-D-glucose [1] was -0.1351. The ATP [1] was 0.1038, the CDP [1] was 0.1776 and the D-sedoheptulose-1/7-phosphate [1] was 0.09578. The FAD [1] was 0.3792, the GMP [1] was -0.7077 and the “NAD+” value [1] was 1.206. The “NADP+” value [1] was 0.3365, the “Octoluse Bisphosphate” value [1] was 0.02588 and the Pyroglutamic acid [1] was -0.2254. For the same compound, the UDP-D-glucose [1] was 0.3073, the UDP-D-glucuronate [1] was 0.153 and the UDP-N-acetyl-glucosamine [1] was 0.3019. For the same compound, the UDP [1] was -0.1861, the UMP [1] was -0.1897 and the UTP [1] was -0.0004267. For the same compound, the a-ketoglutarate [1] was -1.327, the citrate/isocitrate [1] was -0.9862 and the cytidine [1] was 0.6078. For the same compound, the dATP [1] was 0.1738, the dGMP/AMP [1] was -0.2591 and the fumarate [1] was -2.071. The glucose-1/6-phosphate [1] was 0.2752, the glycerate [1] was -0.524 and the guanine [1] was -0.6198. For the same compound, the guanosine [1] was -0.8871, the hypoxanthine [1] was -0.2777 and the indole [1] was -0.4001. For the same compound, the inosine [1] was -0.2517, the 2_3-Diphosphoglyceric acid [1] was 0.5476 and the 4-phosphopantothenate [1] was -0.1524. It also gave a 6-phospho-D-gluconate [1] of 0.3686, an FMN [1] of 0.4685 and an IMP [1] of 0.07164. For the same compound, the Pyrophosphate [1] was 0.2456, the Sedoheptoluse bisphosphate [1] was 0.06348 and the cyclic-AMP [1] was -0.9854. It also gave a glutathione disulfide [1] of -0.1571, a lactate [1] of -0.3018 and a myo-inositol [1] of 0.3826. The nicotinate [1] was -0.1953, the ornithine [1] was -0.1957 and the phosphoenolpyruvate [1] was 0.4685. It also gave a pyruvate [1] of -0.3246, a ribose-phosphate [1] of -0.2844 and a sarcosine/alanine [1] of -1.431. The sn-glycerol-3-phosphate [1] was -0.03786, the succinate/methylmalonic acid [1] was -0.9733 and the uridine [1] was -0.6886. For the same compound, the xanthosine [1] was -1.575 and the EC50 (P. falciparum) was 161 nM.

Work on `c1ccc2cc3c(Nc4ccc(N5CCOCC5)cc4)ccnc3cc2c1` [MMV006861] yielded an Acetyllysine [1] of 0.001155, a N-acetyl-L-ornithine [1] of 0.1202 and a N-carbamoyl-L-aspartate [1] of 0.09461. For the same compound, the NADPH [1] was 0.6132, the dAMP [1] was -0.1929 and the dCMP [1] was 0.2768. For the same compound, the dTDP [1] was 0.03656, the dTMP [1] was 0.1106 and the dTTP [1] was -0.07535. It also gave a dihydroorotate [1] of 0.311, an orotate [1] of -0.21 and a DLH [1] of 0.09611. For the same compound, the DLS/SDL/SID [1] was 0.08895, the PD [1] was 0.008487 and the PEE [1] was 0.1992. The PVNF [1] was -0.07307, the 3-phosphoglycerate [1] was -0.2621 and the ADP-D-glucose [1] was 0.04555. For the same compound, the ATP [1] was 0.1894, the CDP [1] was 0.09878 and the D-sedoheptulose-1/7-phosphate [1] was 0.1691. For the same compound, the FAD [1] was 0.1498, the GMP [1] was 0.6017 and the “NAD+” value [1] was 0.04038. The “NADP+” value [1] was 0.01746, the “Octoluse Bisphosphate” value [1] was 0.06917 and the Pyroglutamic acid [1] was 0.7013. It also gave a UDP-D-glucose [1] of -0.003086, a UDP-D-glucuronate [1] of -0.03493 and a UDP-N-acetyl-glucosamine [1] of 0.008052. It also gave a UDP [1] of 0.1461, a UMP [1] of -0.13 and a UTP [1] of -0.06454. For the same compound, the a-ketoglutarate [1] was -0.4694, the citrate/isocitrate [1] was -0.2815 and the cytidine [1] was -0.002725. It also gave a dATP [1] of -0.03123, a dGMP/AMP [1] of -0.0595 and a fumarate [1] of -0.1611. The glucose-1/6-phosphate [1] was 0.03738, the glycerate [1] was -0.6693 and the guanine [1] was -0.08848. For the same compound, the guanosine [1] was -0.211, the hypoxanthine [1] was -0.05987 and the indole [1] was -0.08261. It also gave an inosine [1] of -0.2117, a 2_3-Diphosphoglyceric acid [1] of 0.06563 and a 4-phosphopantothenate [1] of -0.011. It also gave a 6-phospho-D-gluconate [1] of -0.02789, an FMN [1] of 0.1069 and an IMP [1] of -0.3519. The Pyrophosphate [1] was 0.04971, the Sedoheptoluse bisphosphate [1] was 0.0295 and the cyclic-AMP [1] was 0.009655. The glutathione disulfide [1] was -0.09687, the lactate [1] was -0.2479 and the myo-inositol [1] was -0.35. It also gave a nicotinate [1] of -0.2896, an ornithine [1] of -0.2133 and a phosphoenolpyruvate [1] of -0.1566. For the same compound, the pyruvate [1] was -0.275, the ribose-phosphate [1] was -0.01288 and the sarcosine/alanine [1] was -0.00437. It also gave a sn-glycerol-3-phosphate [1] of -0.1431, a succinate/methylmalonic acid [1] of -0.003665 and a uridine [1] of -0.2532. The xanthosine [1] was -0.2406 and the EC50 (P. falciparum) was 251 nM.

In the case of `COc1ccccc1CNC(=O)CCn1c(=O)[nH]c2ccccc2c1=O` [MMV665916], the Acetyllysine [1] is reported as 0.3638, the N-acetyl-L-ornithine [1] is reported as 0.3943 and the N-carbamoyl-L-aspartate [1] is reported as -0.2097. For the same compound, the NADPH [1] was -0.7222, the dAMP [1] was 0.5335 and the dCMP [1] was -0.1283. It also gave a dTDP [1] of 0.2837, a dTMP [1] of 0.1911 and a dTTP [1] of 0.1028. The dihydroorotate [1] was 0.195, the orotate [1] was 0.1648 and the DLH [1] was -0.3906. It also gave a DLS/SDL/SID [1] of -0.1223, a PD [1] of 0.1255 and a PEE [1] of 0.2968. It also gave a PVNF [1] of -0.3118, a 3-phosphoglycerate [1] of 0.2339 and an ADP-D-glucose [1] of 0.1724. The ATP [1] was 0.1531, the CDP [1] was 0.2423 and the D-sedoheptulose-1/7-phosphate [1] was 0.1783. For the same compound, the FAD [1] was 0.06654, the GMP [1] was -0.759 and the “NAD+” value [1] was 0.08579. The “NADP+” value [1] was 0.1944, the “Octoluse Bisphosphate” value [1] was 0.5392 and the Pyroglutamic acid [1] was -0.1569. It also gave a UDP-D-glucose [1] of 0.1671, a UDP-D-glucuronate [1] of 0.1875 and a UDP-N-acetyl-glucosamine [1] of 0.2144. For the same compound, the UDP [1] was 0.1783, the UMP [1] was -0.6315 and the UTP [1] was 0.2956. The a-ketoglutarate [1] was -0.329, the citrate/isocitrate [1] was -0.5155 and the cytidine [1] was -0.1275. For the same compound, the dATP [1] was 0.146, the dGMP/AMP [1] was 0.3579 and the fumarate [1] was -0.07198. The glucose-1/6-phosphate [1] was -0.1463, the glycerate [1] was 0.2881 and the guanine [1] was -0.1565. It also gave a guanosine [1] of -0.3335, a hypoxanthine [1] of -0.2904 and an indole [1] of -0.1941. The inosine [1] was -0.04044, the 2_3-Diphosphoglyceric acid [1] was 0.5062 and the 4-phosphopantothenate [1] was 0.1361. It also gave a 6-phospho-D-gluconate [1] of 0.2552, an FMN [1] of 0.1915 and an IMP [1] of 0.3796. The Pyrophosphate [1] was 0.2568, the Sedoheptoluse bisphosphate [1] was 0.5745 and the cyclic-AMP [1] was 0.1551. For the same compound, the glutathione disulfide [1] was 0.2989, the lactate [1] was -0.2145 and the myo-inositol [1] was 0.9008. For the same compound, the nicotinate [1] was -0.1745, the ornithine [1] was 0.1369 and the phosphoenolpyruvate [1] was 0.02242. The pyruvate [1] was -0.2103, the ribose-phosphate [1] was -0.4062 and the sarcosine/alanine [1] was 0.2908. It also gave a sn-glycerol-3-phosphate [1] of -0.1634, a succinate/methylmalonic acid [1] of -0.1615 and a uridine [1] of -0.1737. It also gave a xanthosine [1] of -0.4685 and an EC50 (P. falciparum) of 72.6 nM.
